Assay results reported in ChEMBL document CHEMBL1201862, “PubChem BioAssay data set” (2004).
Active and inactive are the calls of the source. Rule as the data show it, for most assays here: actives have a measured EC50 and inactives only a lower limit.

How the values were obtained:
[1] = target: T1, Polyadenylate-binding protein 1 (Homo sapiens, UniProt P11940); experiment: PABP1 MLLE–PAM2 binding inhibitor potency, dose response, biochemical, fluorescence polarization, FITC-PAM2 peptide (AID 602259); assay type: functional; details: read-out: IC50_Mean
T1 sequence (P11940 whole entry): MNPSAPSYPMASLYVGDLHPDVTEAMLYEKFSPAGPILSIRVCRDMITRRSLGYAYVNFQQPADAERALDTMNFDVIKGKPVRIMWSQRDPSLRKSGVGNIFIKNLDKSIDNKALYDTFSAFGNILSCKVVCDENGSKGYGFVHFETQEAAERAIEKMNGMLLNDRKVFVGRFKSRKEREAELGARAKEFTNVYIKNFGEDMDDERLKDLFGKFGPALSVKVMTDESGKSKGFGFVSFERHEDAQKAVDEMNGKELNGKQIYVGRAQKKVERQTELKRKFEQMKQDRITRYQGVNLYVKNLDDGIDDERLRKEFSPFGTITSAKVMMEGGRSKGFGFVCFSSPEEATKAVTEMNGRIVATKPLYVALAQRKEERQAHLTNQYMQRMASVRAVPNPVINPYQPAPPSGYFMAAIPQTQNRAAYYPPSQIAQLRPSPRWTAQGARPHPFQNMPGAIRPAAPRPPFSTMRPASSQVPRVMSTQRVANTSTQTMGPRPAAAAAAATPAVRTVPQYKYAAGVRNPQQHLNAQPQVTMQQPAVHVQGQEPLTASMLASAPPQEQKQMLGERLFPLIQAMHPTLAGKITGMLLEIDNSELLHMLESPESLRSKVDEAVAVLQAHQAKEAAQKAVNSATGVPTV

[2] = target: T1, Polyadenylate-binding protein 1; experiment: PABP1 MLLE–PAM2 interaction inhibitors, dose response, miRNA deadenylation inhibitor project, biochemical, fluorescence polarization, Cy5-PAM2 peptide, secondary (AID 602260); assay type: functional; details: read-out: IC50_Mean
[3] = target: Luciferin 4-monooxygenase (Photinus pyralis, UniProt P08659); experiment: firefly luciferase enzyme inhibitors, dose response, biochemical, luminescence (AID 1891)
Chain of Luciferin 4-monooxygenase (P08659 whole entry): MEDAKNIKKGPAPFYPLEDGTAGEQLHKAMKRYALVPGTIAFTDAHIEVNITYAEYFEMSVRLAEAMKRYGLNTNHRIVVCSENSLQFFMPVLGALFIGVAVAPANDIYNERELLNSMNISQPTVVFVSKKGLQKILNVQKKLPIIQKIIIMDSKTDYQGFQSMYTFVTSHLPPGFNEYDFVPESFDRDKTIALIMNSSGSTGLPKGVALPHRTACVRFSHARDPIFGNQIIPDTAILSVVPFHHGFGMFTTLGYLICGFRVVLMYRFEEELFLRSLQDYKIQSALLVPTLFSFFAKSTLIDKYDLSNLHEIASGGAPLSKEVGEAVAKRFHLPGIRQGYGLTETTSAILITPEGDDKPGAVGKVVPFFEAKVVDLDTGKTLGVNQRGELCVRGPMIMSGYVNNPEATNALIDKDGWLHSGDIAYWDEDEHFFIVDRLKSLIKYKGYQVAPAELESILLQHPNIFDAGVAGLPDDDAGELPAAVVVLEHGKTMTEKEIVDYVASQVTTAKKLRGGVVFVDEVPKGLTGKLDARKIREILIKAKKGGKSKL

[4] = Luminescence Cell-Based Dose Confirmation HTS to Identify Inhibitors of Platelet Dense Granule Release. [Related pubchem assays: 1663 (Primary HTS), 1678 (Summary of Project)]; assay type: functional
Paired box protein Pax-8 = Paired box protein Pax-8 (Homo sapiens, UniProt Q06710); experiment: inhibitors of PAX8-driven TPO luciferase reporter, dose response, RMG-I cells, cherry-pick (AID 687027); assay type: functional, cell-based;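 also: luciferase reporter driven by Pax8 target thyroperoxidase promoter measured by SteadyGlo luminescence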
Chain of Paired box protein Pax-8 (Q06710 whole entry): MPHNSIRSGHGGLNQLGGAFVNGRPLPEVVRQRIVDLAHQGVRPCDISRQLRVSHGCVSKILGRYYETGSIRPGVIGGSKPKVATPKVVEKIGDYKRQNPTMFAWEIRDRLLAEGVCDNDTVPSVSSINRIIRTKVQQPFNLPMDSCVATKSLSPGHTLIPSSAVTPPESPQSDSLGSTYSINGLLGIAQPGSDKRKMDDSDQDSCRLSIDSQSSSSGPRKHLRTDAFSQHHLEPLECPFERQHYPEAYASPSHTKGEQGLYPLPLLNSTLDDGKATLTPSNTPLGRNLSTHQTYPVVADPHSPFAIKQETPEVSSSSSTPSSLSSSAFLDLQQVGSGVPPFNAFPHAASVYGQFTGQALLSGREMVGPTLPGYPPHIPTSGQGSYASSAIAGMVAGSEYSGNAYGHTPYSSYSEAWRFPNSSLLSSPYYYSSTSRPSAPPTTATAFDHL

BJ [5] = experiment: cytotoxicity toward BJ-TERT fibroblasts, dose response, cell-based, RAS-independent, luminescence (AID 1933); assay type: functional; details: Homo sapiens
BJ [6] = experiment: cytotoxicity toward BJ-TERT-LT-ST fibroblasts, dose response, cell-based, RAS-independent, luminescence (AID 1935); assay type: functional; details: Homo sapiens;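 also: BJ fibroblasts immortalized with TERT plus LT and ST oncogenes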
[7] = cytotoxicity toward DRD oncogenic fibroblasts, dose response, cell-based, non-viral oncogenic, luminescence (AID 1934); assay type: functional; details: Homo sapiens
BJ [8] = experiment: cells; assay type: functional, cell-based; details: Homo sapiens
INS1 = experiment: beta cell apoptosis inhibitors, cytokine rescue, dose response, luminescence, retest (AID 449756); assay type: functional, cell-based; details: Rattus norvegicus;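 also: cell death triggered by IL-1 beta plus TNF-alpha plus IFN-gamma mixture; protective hits raise ATP signal compared with cytokine alone wells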
[9] = target: T2, Heat shock factor protein 1 (Mus musculus, UniProt P38532); experiment: HSF1 potentiators in luciferase reporter cells, confirmation, cell-based, NIH3T3, luminescence, dose retest (AID 435004); assay type: functional;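 also: stress induced by proteasome inhibitor MG132 added 30 min after compound; luciferase reporter driven by HSF1 response element in NIH3T3 cells; actives raise luminescence as potentiators of the MG132 stress response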
T2 sequence (P38532 whole entry): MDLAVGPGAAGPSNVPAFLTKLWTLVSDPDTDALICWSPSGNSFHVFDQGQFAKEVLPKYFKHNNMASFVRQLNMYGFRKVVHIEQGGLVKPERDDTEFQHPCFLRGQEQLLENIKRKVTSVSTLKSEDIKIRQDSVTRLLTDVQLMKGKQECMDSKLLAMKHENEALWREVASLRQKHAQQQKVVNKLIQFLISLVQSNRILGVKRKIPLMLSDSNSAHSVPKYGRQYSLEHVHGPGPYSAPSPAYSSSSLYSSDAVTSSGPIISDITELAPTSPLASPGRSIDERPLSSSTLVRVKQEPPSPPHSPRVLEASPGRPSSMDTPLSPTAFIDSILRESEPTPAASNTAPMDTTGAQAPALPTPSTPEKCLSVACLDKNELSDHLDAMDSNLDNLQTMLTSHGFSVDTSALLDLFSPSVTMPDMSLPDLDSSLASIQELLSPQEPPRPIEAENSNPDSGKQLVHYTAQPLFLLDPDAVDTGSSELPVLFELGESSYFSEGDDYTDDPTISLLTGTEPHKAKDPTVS

[10] = target: T2, Heat shock factor protein 1; experiment: inhibition of MG132-induced HSE-luciferase signal, confirmation, cell-based, NIH3T3, luminescence, dose retest (AID 2382); assay type: functional;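 also: NIH3T3 fibroblasts with HSF1-driven luciferase reporter stressed by proteasome inhibitor MG132; luminescence from HSF1-driven luciferase expression after 8 hours of MG132 stress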
cells [11] = assay type: functional, cell-based
cells [12] = assay type: functional, cell-based; remark: listed apart in the source
[13] = Luminescence Cell-Based Dose Retest to Confirm Inhibitors of Cancer Stem Cells. [Related pubchem assays (depositor defined):AID2717, AID2721]; assay type: functional; details: Homo sapiens
Streptokinase A = target: T3, Streptokinase A (Streptococcus pyogenes serotype M1, UniProt P10520); experiment: S. pyogenes streptokinase expression inhibitors, potency, dose response, plasminogen activation absorbance, OD405 (AID 1914); assay type: functional, Streptococcus pyogenes M1 GAS;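 also: secreted streptokinase activity via plasminogen activation per viability signal from cell pellet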
T3 sequence (P10520 whole entry): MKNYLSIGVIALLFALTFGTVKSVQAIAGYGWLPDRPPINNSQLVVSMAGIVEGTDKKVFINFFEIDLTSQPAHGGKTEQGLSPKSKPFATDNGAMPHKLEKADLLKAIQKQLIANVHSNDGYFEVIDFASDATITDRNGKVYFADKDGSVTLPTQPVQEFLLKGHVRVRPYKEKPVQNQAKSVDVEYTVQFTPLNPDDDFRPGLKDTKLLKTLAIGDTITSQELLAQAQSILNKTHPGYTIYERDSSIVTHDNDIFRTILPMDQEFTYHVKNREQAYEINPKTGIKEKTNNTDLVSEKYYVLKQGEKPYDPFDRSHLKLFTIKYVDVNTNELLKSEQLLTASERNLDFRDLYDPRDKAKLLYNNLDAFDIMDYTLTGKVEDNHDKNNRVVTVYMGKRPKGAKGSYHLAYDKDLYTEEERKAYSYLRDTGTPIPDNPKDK

[14] = tested on: Streptococcus sp. 'group A'; experiment: growth inhibition of control SK(-) GAS strain, dose response, counter-screen for streptokinase expression inhibitor project, luminescence, kanamycin, BacTiterGlo, confirmation (AID 1900); assay type: functional, organism-based
Streptococcus = experiment: Group A Streptococcus viability loss, dose response, counter-screen for streptokinase expression inhibitor project, luminescence, BacTiterGlo (AID 1915); assay type: functional, organism-based;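 also: potency for reduction of bacterial viability or growth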
Vero = experiment: cells; assay type: functional; details: Chlorocebus sabaeus
[15] = target: FAD-linked sulfhydryl oxidase ALR (Homo sapiens, UniProt P55789); experiment: inhibitors of human ALR sulfhydryl oxidase, dose response, biochemical, H2O2 detection, luminescence, cherry-pick (AID 493248)
Chain of FAD-linked sulfhydryl oxidase ALR (P55789 whole entry): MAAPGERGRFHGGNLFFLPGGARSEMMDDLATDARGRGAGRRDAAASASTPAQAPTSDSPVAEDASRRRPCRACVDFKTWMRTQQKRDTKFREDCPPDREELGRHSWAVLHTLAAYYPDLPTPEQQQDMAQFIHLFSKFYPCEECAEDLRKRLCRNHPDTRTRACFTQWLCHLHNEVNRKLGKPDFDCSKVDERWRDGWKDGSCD

With `O=C(CC(Sc1ccccc1)c1cccs1)c1ccco1` (stereo not given) the IC50 [1] was > 66 µM (inactive) and the IC50 [2] was > 66 µM (inactive).
With `CCCn1nc(C(=O)NNC(=O)c2cccc(S(=O)(=O)NC(C)C)c2)c2ccccc2c1=O` the EC50 [3] was > 112 µM (not active) and the EC50 [4] was > 112 µM (not active).
With `C[C@@H]1CCCCO[C@@H](CN(C)C(=O)C2CCCCC2)[C@H](C)CN([C@H](C)CO)C(=O)c2cc(NS(=O)(=O)c3ccc(Cl)cc3)ccc2O1` the AC50 (Paired box protein Pax-8) was 4.99 µM (active).
In the case of `Cc1cc2ccccn2c1C(=O)c1cccc([N+](=O)[O-])c1`, the EC50 (BJ [5]) is reported as > 150 µM (not active), the EC50 (BJ [6]) is reported as > 150 µM (inconclusive) and the EC50 [7] is reported as > 150 µM (inconclusive). The EC50 (BJ [8]) was > 150 µM (not active).
With `Cc1ccc(-c2nc(N/N=C/c3cccnc3)c3ccccc3n2)cc1` the AC50 (INS1) was 6.77 µM (active), the EC50 [3] was 0.798 µM (active) and the EC50 [4] was 1.02 µM (active).
With `O=S(=O)(c1cc(Cl)ccc1Cl)N1CC2CCCN2c2ccc(C(F)(F)F)cc21` (stereo not given) the EC50 [9] was > 260 µM (inactive).
In the case of `CCc1ccc(N(C(=O)c2snc(C(N)=O)c2N)C(C(=O)NCCC(C)C)c2c[nH]c3ccccc23)cc1` (stereo not given), the EC50 [9] is reported as 139 µM (active).
For `COc1ccc(NC(=O)CSc2nnc(NC(C)=O)s2)c([N+](=O)[O-])c1`, the IC50 [1] was > 66 µM (inactive) and the IC50 [2] was > 66 µM (inactive).
For `Cc1nc2cc(Nc3ccncc3)ccc2s1`, the EC50 [3] was > 112 µM (not active) and the EC50 [4] was > 112 µM (not active).
For `COc1ccc(C2=CC(c3ccc(OC)c(OC)c3)c3c(c4ccccc4oc3=O)O2)cc1OC` (stereo not given), the EC50 (BJ [5]) was 5.11 µM (active), the EC50 (BJ [6]) was 27.7 µM (active) and the EC50 [7] was 17.3 µM (active). The EC50 (BJ [8]) was 51.8 µM (active) and the EC50 [10] was > 195 µM (not active).
With `COc1ccc(C(=O)NC2CCN(C(S)=NCc3ccco3)CC2)cc1` the EC50 [9] was > 260 µM (inactive).
In the case of `COc1cc(SC)ccc1C(=O)NCCc1ccccc1`, the EC50 (cells [11]) is reported as 18.9 µM (active) and the EC50 (cells [12]) is reported as > 350 µM (not active).
For `Nc1cc(-c2ccc(OC(F)(F)F)cc2)nn1-c1ccc(Cl)c(Cl)c1`, the AC50 [13] was 4.74 µM (active), the EC50 (Streptokinase A) was 20 µM (inconclusive) and the EC50 [14] was 6.98 µM (active). For the same compound, the EC50 (Streptococcus) was 11.6 µM (active).
In the case of `O=C(Nc1cccc(NC(=O)c2cccnc2Cl)c1)c1ccco1`, the EC50 [3] is reported as > 112 µM (not active) and the EC50 [4] is reported as 16.6 µM (active).
For `COc1ccc(OC(=O)N2C/C(=C/c3ccccc3)C(=O)/C(=C\c3ccccc3)C2)cc1`, the CC50 (Vero) was 9.88 µM (active).
In the case of `Cc1ccc(C(=O)O/N=C(\N)c2ccccc2)c(Cl)c1`, the EC50 [3] is reported as 1.03 µM (active), the EC50 [4] is reported as 2.42 µM (active) and the EC50 [10] is reported as < 0.16 µM (active).
For `CCCc1ccc(-c2cc(N)[nH]n2)cc1`, the EC50 (Streptokinase A) was > 150 µM (not active), the EC50 [14] was 30.9 µM (active) and the EC50 (Streptococcus) was > 150 µM (not active). The AC50 [15] was 11.3 µM (active).
